Measured values as given in ChEMBL document CHEMBL1121926, “Adriamycin analogues. Preparation and antitumor evaluation of 7-O-(beta-D-glucosaminyl)daunomycinone and 7-O-(beta-D-glucosaminyl)adriamycinone and their N-trifluoroacetyl derivatives” (1982).

Tests used:
Type in all cases: functional
Mus musculus [1] = experiment: Percent increase in life span was calculated against L1210 murine leukemia cells in BDF1 male mice at the specified in vivo dose of 90(mg/kg)/day.
Mus musculus [2] = experiment: Median day of death was calculated against L1210 murine leukemia cells in BDF1 male mice at the specified in vivo dose of 90(mg/kg)/day
Mus musculus [3] = experiment: Percent increase in life span was calculated against L1210 murine leukemia cells in BDF1 male mice at the specified in vivo dose of 120(mg/kg)/day.
Mus musculus [4] = experiment: Median day of death was calculated against L1210 murine leukemia cells in BDF1 male mice at the specified in vivo dose of 120(mg/kg)/day
Mus musculus [5] = experiment: Percent increase in life span was calculated against L1210 murine leukemia cells in BDF1 male mice at the specified in vivo dose of 3.5(mg/kg)/day.
Mus musculus [6] = experiment: Median day of death was calculated against L1210 murine leukemia cells in BDF1 male mice at the specified in vivo dose of 3.5(mg/kg)/day

In the case of `COc1cccc2c1C(=O)c1c(O)c3c(c(O)c1C2=O)C[C@@](O)(C(C)=O)C[C@@H]3O[C@@H]1O[C@H](CO)[C@@H](O)[C@H](O)[C@H]1N`, the Increase in life-span (Mus musculus [1]) was 60% and the “Median day of death” value (Mus musculus [2]) was 16.

In the case of `COc1cccc2c1C(=O)c1c(O)c3c(c(O)c1C2=O)C[C@@](O)(C(=O)CO)C[C@@H]3OC1OC(CO)C(O)C(O)C1N` (stereo partly specified), the Increase in life-span (Mus musculus [3]) was 40% and the “Median day of death” value (Mus musculus [4]) was 14.

For `COc1cccc2c1C(=O)c1c(O)c3c(c(O)c1C2=O)C[C@@](O)(C(=O)CO)C[C@@H]3O[C@H]1C[C@H](N)[C@H](O)[C@H](C)O1` [DOXORUBICIN], the Increase in life-span (Mus musculus [5]) was 40% and the “Median day of death” value (Mus musculus [6]) was 14.
